Assay results reported in US20230103704A1, “HUMAN ANTI-IN[…] FOR THE […] OF IN[…] ISSUES” (priority 2020, published 2023).
“And” between values parts separate entries of the source, which are not always exact repeats. Equal values may be shown once. “Also recorded” adds a separate entry of the source. Marks after values point to notes of the source that are not given here.

Key:
CoViD-19 = test: Individual curing attempts for CoViD-19 with Aviptadil, oxygen demand; assay type: in vivo, human
Procedure: Example 18: Individual Curing Attempts for the Therapy of CoViD-19 with Aviptadil 3×66 μg Daily Per Inhalationem (Oxygen Demand Via Oxygen Nasal Cannula in L Per Minute (l/min))

[1] = test system: CoViD-19 infected patients at risk for ARDS; details: human, in vivo
[2] = may be as low as; cited from earlier work
[3] = test system: pulmonary arterial hypertension (PAH); test: Case: inhaled Aviptadil in a patient with severe pulmonary arterial hypertension; assay type: in vivo, human
Procedure: A patient with severe pulmonary arterial hypertension (PAH), associated with collagen vascular disease, presented with signs of right ventricular decompensation, with an initial pulmonary vascular resistance (PVR) of 1413 dyn s cm^−5. The patient was treated before with bosentan for 3 months. This therapy was discontinued due to increased liver enzymes. PAH-specific medication was changed to triple therapy comprising inhaled iloprost and systemic sildenafil and ambrisentan. The patient developed peripheral edema, right ventricular hypertrophy, right ventricular systolic pressure (RVSP) 97 mm Hg, TAPSE (tricuspid annular plane systolic excursion) 17 mm, 6 min walking test 290 m. A repeated prostanoid therapy was refused by the patient. Due to the lack of other treatment options, treatment with inhaled Aviptadil was initiated at a dose of 4×140 μg/ml per day (560 μg/day) with overnight break, droplet characteristics of a MMAD of 3.4 μm per emitted particle (nebulizer: M-neb-dose+, NEBU-TEC, Eisenfeld, Germany). 90% of the dose were delivered at the mouthpiece (SK-211, NEBU-TEC, Eisenfeld, Germany). Inhalation time per treatment was 12 minutes. […] 6 months later the 6 min walking test was increased to 340 m, 12 months later to 410 m. 3 years later an ongoing improvement was noted, with 6 min walking distances between 430-475 m and still persistent PAH, but good right ventricular function of TAPSE 22 mm. This dramatic improvement of the patient over time is attributed to the effect of inhaled Aviptadil.

[4] = test system: PBMCs stimulated with beryllium; test: Case: inhaled Aviptadil in a patient with Chronic Beryllium Disease, PBMC proliferation and cytokines; assay type: in vivo, human; details: after 6 months of treatment
From the text: A patient who was continuously exposed to beryllium at their workplace developed Chronic Beryllium Disease (CBD). This was diagnosed by tests performed on peripheral blood and bronchoalveolar lavage (BAL) mononuclear cells. […] A test called beryllium lymphocyte proliferation test (BeLPT) confirmed the CBD diagnosis. Due to the lack of available treatment options for CBD, the patient qualified for the Early Access Program treatment with inhaled Aviptadil. Therapy was initiated at a dose of 4×70 μg/ml per day dosage (280 μg per day with overnight break; nebulizer: M-neb-dose+, NEBU-TEC, Eisenfeld, Germany; mouthpiece; SK-211, NEBU-TEC, Eisenfeld, Germany). After 6 months of treatment, the proliferation rate of PBMCs stimulated with beryllium (0.1 mM) from the patient was inhibited by 100% by Aviptadil.

ARDS = details: systemic administration, cited from earlier work
sarcoidosis of the lung = test: Case: inhaled Aviptadil in a patient with severe sarcoidosis of the lung (KSQ); assay type: in vivo, human; details: for King's College Sarcoidosis Questionnaire (KSQ) score: 280 μg per day inhaled
Procedure: A patient with severe sarcoidosis of the lung indicated for therapeutic treatment suffered from unproductive chronic cough, dyspnea on exertion and chronic fatigue. […] Therapy was initiated at a dose of 4×70 μg/ml per day dosage (280 μg per day with overnight break; nebulizer: M-neb-dose+, NEBU-TEC, Eisenfeld, Germany; mouthpiece; SK-211, NEBU-TEC, Eisenfeld, Germany). Therapeutic benefit was measured by the newly established and well validated quality of life questionnaire for sarcoidosis, the King's College Sarcoidosis Questionnaire (KSQ; Patel et al. (2013) Thorax 68: 57-65). Therein an increase in score by 5 over time indicates significant clinical improvement. The patient started treatment at a score of 66, improved after 3 months of treatment to score 71, and after 6 months of treatment to score 77, which is 11 points higher than at beginning of treatment with Aviptadil.

[5] = assay type: physicochemical
Procedure: Aviptadil can be obtained, e.g., from Bachem AG, Bubendorf, Switzerland, in GMP quality.
The experimental procedure was carried out pursuant to Ph. Eur. 2.9.44 (Preparations for Nebulisation: Characterisation). A cascade impactor (Next Generation Impactor (NGI), Copley Scientific Ltd., Nottingham, UK) was used to determine the respective percentage for each fraction of the nebulized particles.
The thus generated aerosol was delivered to the cascade impactor by means of a mouthpiece (SK-211, NEBU-TEC, Eisenfeld, Germany).
The nebulization chamber (yellow stamp, 250 μl liquid discharge) was filled. The puff profile configured at the breath simulator was chosen in such a way that a correct simulation of inhalation by means of the nebulizer was ensured. The corresponding time was recorded.
Single values obtained for each cascade were added. […] MMAD, FPF and FPM were calculated from the obtained values: […]

[6] = Side effects of inhaled vasoactive intestinal peptide in previous trials; assay type: in vivo, human
Patients with SARS-CoV-2 = test: Study of aviptadil inhalation versus placebo in CoViD-19 patients; assay type: in vivo, human; details: during treatment, 28 days inhalative
From the text: A study examines the positive effect of aviptadil inhalation (dosage example 17) in CoViD-19 patients.
Patients with SARS-CoV-2 are randomized into two groups, one with 28 days aviptadil inhalative, one with 28 days placebo inhalative.

[7] = Aviptadil aerosol from M-neb dose+ MN-300/8 tested with COPLEY next generation impactor; assay type: physicochemical
Procedure: Using the M-neb® dose^+ mesh nebulizer MN-300/8 and the respective mouthpiece, Aviptadil has been tested with the COPLEY next generation impactor (NGI). The mass median aerodynamic diameter (MMD) of Aviptadil dissolved in 0.9% NaCl was 3.3-3.5 μm per emitted particle. The number of those particles <5 μm=85.70%, and the dose delivered at the mouthpiece was 90.2% of the tested dosages.
Aviptadil has been tested in 0.9% NaCl solution at different drug concentrations (35 μg/ml, 70 μg/ml, 140 μg/ml, 200 μg/ml, 250 μg/ml, 400 μg/ml).

[8] = estimated values with 25 l/min Highflow with oxygen from 72 to 44%
[9] = oxygen nasal cannula, 3×66 μg daily, one table line per patient
[10] = oxygen nasal cannula, 3×66 μg daily, one table line per patient, listed as Aviptadil
[11] = 0.1 mg/ml in physiological saline

## CC[C@H](C)[C@H](NC(=O)[C@H](CO)NC(=O)[C@H](CC(N)=O)NC(=O)[C@H](CC(C)C)NC(=O)[C@H](Cc1ccc(O)cc1)NC(=O)[C@H](CCCCN)NC(=O)[C@H](CCCCN)NC(=O)[C@@H](NC(=O)[C@H](C)NC(=O)[C@H](CCSC)NC(=O)[C@H](CCC(N)=O)NC(=O)[C@H](CCCCN)NC(=O)[C@H](CCCNC(=N)N)NC(=O)[C@H](CC(C)C)NC(=O)[C@H](CCCNC(=N)N)NC(=O)[C@@H](NC(=O)[C@H](Cc1ccc(O)cc1)NC(=O)[C@H](CC(N)=O)NC(=O)[C@H](CC(=O)O)NC(=O)[C@@H](NC(=O)[C@H](Cc1ccccc1)NC(=O)[C@@H](NC(=O)[C@H](C)NC(=O)[C@H](CC(=O)O)NC(=O)[C@H](CO)NC(=O)[C@@H](N)Cc1c[nH]cn1)C(C)C)[C@@H](C)O)[C@@H](C)O)C(C)C)C(=O)N[C@@H](CC(C)C)C(=O)N[C@@H](CC(N)=O)C(N)=O [vasoactive intestinal peptide]
CoViD-19; [8]
  O2 Day 1: 15* l/min
  O2 Day 2: 15* l/min
  O2 Day 3: 14* l/min
  O2 Day 4: 11* l/min
  O2 Day 5: 6* l/min
  O2 Day 6: 6* l/min
CoViD-19; [9]
  O2 Day 11: 6 L/min
  O2 Day 12: 3.3 L/min
  O2 Day 13: 2 L/min
  O2 Day 14: 1.5 L/min
  O2 Day 15: 1 L/min
  O2 Day 16: 0.5 L/min
  O2 Day 17: 0 L/min
CoViD-19; [10]
  O2 Day 1: 5 L/min and 3 L/min and 2 L/min and 1.5 L/min
  O2 Day 2: 4 l/min and 3 l/min (2×) and 2 l/min
  O2 Day 3: 6 l/min and 4 l/min and 3 l/min (2×) and 2 l/min
  O2 Day 4: 5 l/min and 4 l/min and 2 l/min (3×)
  O2 Day 5: 4 l/min and 3 l/min and 1 l/min (2×) and 0 l/min
  O2 Day 6: 3 l/min and 2 l/min (2×) and 0 l/min
  O2 Day 7: 2 l/min (2×) and 1 l/min and 4 l/min
  O2 Day 8: 0 l/min and 1 l/min (2×) and 5.5 l/min
  O2 Day 9: 1 l/min (2×) and 4.7 l/min
  O2 Day 10: 0 l/min (2×) and 5.5 l/min
[1]
  Arterio-alveolar oxygen difference (AaDO2): lower
  need of oxygen supplementation: lower need of oxygen supplementation
  oxygenation (SpO2/FiO2 quotient): better oxygenation
  rate of progression to ARDS: reduced rate of progression to ARDS
  respiratory rate: decrease of respiratory rate
[2]
  half-life in blood: about 2 minutes
[3]; 560 μg/day inhaled
  clinical course: gradual improvement
[3]; 3 years later
  6 min walking distances: 430-475 m
[3]; 3 years later, 17 mm before
  TAPSE: 22 mm
[3]; 6 months later, 560 μg/day inhaled, 290 m before
  6 min walking test: 340 m
[3]; 12 months later, 560 μg/day inhaled
  6 min walking test: 410 m
[4]
  production of cytokines TNF-alpha, IL-17: significantly diminished
ARDS; some of the patients
  systemic side effects: hypotension
ARDS; trial discontinued
  effect on ARDS: lack of positive effect
Sarcoidosis of the lung; after 3 months, score 66 at start
  King's College Sarcoidosis Questionnaire (KSQ) score: 71
Sarcoidosis of the lung; after 6 months
  KSQ score higher than at beginning of treatment: 11 points
  King's College Sarcoidosis Questionnaire (KSQ) score: 77
[5]; [11]
  MMAD: 3.40 μm
  released dosage at the mouthpiece as share of the nominal value: 80%
[5]; 0.1 mg/ml in physiological saline, at the mouthpiece
  released dosage: 0.08 mg
[5]; Example 11, 140 μg/ml, M-neb-dose+
  MMAD per emitted particle: 3.4 μm
[5]; Example 11, mouthpiece SK-211
  dose delivered at the mouthpiece: 90%
[5]; corresponds to 30 strokes/breaths
  time of aerosol release: 3 min
[6]
  side effects found with systemic administration: lacks the side effects; also recorded: lacks these side effects
Patients with SARS-CoV-2
  T-cells expressing CD28 promoting inflammation: diminished
  TNF release in the lung: diminished
  regulatory T-cells dampening inflammation: increased
[7]
  dose delivered at the mouthpiece, of the tested dosages: 90.2%
[7]; 35 to 400 μg/ml in 0.9% NaCl
  linearity of aerosol output rates at the mouthpiece over increasing numbers of breathing cycles: excellent linearity
[7]; dissolved in 0.9% NaCl
  mass median aerodynamic diameter (MMD) per emitted particle: 3.3-3.5 μm
  number of particles <5 μm: 85.70%
